Assay results reported in article PMC5613062 (Investigational New Drugs, 2017).
pIC50: −log10 of the molar value. “Also recorded” adds a separate entry of the source. Where two headings read alike, the source gives them in different places.

Tests used:
[1] = tested on: HCT-116 human colorectal cancer xenograft; parameters: method as in earlier work; conditions: AZD6244 25 m/kg BD; docetaxel 15 mg/kg once weekly; ref IB; cited from earlier work
[2] = parameters: method as in earlier work; conditions: monkey; ref IB; cited from earlier work
[3] = parameters: method as in protocol D1532C00004; conditions: protocol rationale for QD dosing; ref protocol D1532C00004; cited from earlier work
[4] = Pharmacokinetics alone and in combination, selumetinib + temsirolimus arm; assay type: in vivo, human; conditions: human, plasma, iv, geometric mean (% CV); for AUC(0-t): read-out: AUC(0–8); for AUC(0–12): read-out: AUC(0–12); for Cmax: read-out: Cmax
Procedure: (§1) PK parameters were derived using non-compartmental analysis. Cmax and tmax were determined by visual inspection of the plasma concentration-time profiles. AUC(0–12) was calculated by the linear trapezoidal rule. Where more than one maximum occurred, the reported value was assigned to the first occurrence.

[5] = tested on: CYP 2D6; parameters: method as in earlier work; conditions: at concentrations up to 50uM; ref IB; cited from earlier work
[6] = parameters: method as in earlier work; conditions: mouse; ref IB; cited from earlier work
[7] = parameters: method as in earlier work; conditions: Minipig; ref IB; cited from earlier work
[8] = tested on: Lovo colorectal cancer xenograft; parameters: method as in earlier work; conditions: ref IB, cited from earlier work
[9] = tested on: 3T3; parameters: method as in earlier work; conditions: 3T3 Neutral Red Uptake phototoxicity test; ref IB; cited from earlier work
[10] = parameters: method as in earlier work; conditions: human; ref IB; cited from earlier work
[11] = tested on: CYP 2C19; parameters: method as in earlier work; conditions: at concentrations up to 50uM; ref IB; cited from earlier work
[12] = tested on: CYP 3A4; parameters: method as in earlier work; conditions: at concentrations up to 50uM; ref IB; cited from earlier work
[13] = tested on: SW620 human colorectal cancer xenograft; parameters: method as in earlier work; conditions: ref IB, cited from earlier work
[14] = tested on: cytochrome P450 (CYP)3A, 1A and 2C; parameters: method as in earlier work; conditions: human hepatocytes, preliminary in vitro data; ref IB; cited from earlier work
[15] = tested on: expressed CYP isoforms; parameters: method as in earlier work; conditions: ref IB; listed as AZD6244; cited from earlier work
[16] = parameters: method as in earlier work; conditions: dog; ref IB; cited from earlier work
[17] = tested on: CYP2C9; parameters: method as in earlier work; conditions: weak direct inhibitor; ref IB; cited from earlier work
[18] = tested on: p-glycoprotein (PgP); parameters: method as in earlier work; conditions: ref IB; cited from earlier work
[19] = tested on: panel of other kinases; parameters: method as in earlier work; conditions: ref IB; cited from earlier work
[20] = tested on: CYP 2C8; parameters: method as in earlier work; conditions: at concentrations up to 50uM; ref IB; cited from earlier work
[21] = tested on: CYP1A2; parameters: method as in earlier work; conditions: at concentrations up to 50uM; ref IB; cited from earlier work
[22] = parameters: method as in earlier work; conditions: predominantly via an aneugenic mode of action; ref IB; cited from earlier work
[23] = parameters: method as in earlier work; conditions: mice, at dose levels that do not induce maternal toxicity, preliminary; ref IB; cited from earlier work
[24] = parameters: method as in earlier work; conditions: mouse, rat and monkey; dosed as free-base or Hyd-Sulfate; ref IB; cited from earlier work
[25] = ref Study ARRY-0401, cited from earlier work
[26] = parameters: method as in earlier work; conditions: either formulation of AZD6244; ref IB; cited from earlier work
[27] = tested on: breast cancer resistance protein (BCRP); parameters: method as in earlier work; conditions: ref IB; cited from earlier work
[28] = Pharmacokinetics alone and in combination, selumetinib + erlotinib arm
Procedure: as §1

[29] = cited from earlier work
[30] = dosed alone, selumetinib 50 mg cohort (N = 25), temsirolimus 25 mg IV
[31] = dosed alone, selumetinib 75 mg cohort (N = 6), temsirolimus 25 mg IV
[32] = dosed in combination, selumetinib 50 mg BID (N = 22) + temsirolimus 25 mg IV
[33] = dosed in combination, selumetinib 75 mg BID (N = 5) + temsirolimus 25 mg IV

SMILES: Cn1cnc2c(F)c(Nc3ccc(Br)cc3Cl)c(C(=O)NOCCO)cc21 [Selumetinib]
- Tumor growth inhibition as a % of control [1]: 64.9 % of control
- Protein binding [2]: 97.7%
- half-life [3]: ~ 6 hours
- AUC(0-t) [4, 30]: 1840 ng·h/mL
- AUC(0–12) [4, 30]: 2150 ng·h/mL
- Cmax [4, 30]: 666 ng/mL
- AUC(0-t) [4, 31]: 2990 ng·h/mL
- AUC(0–12) [4, 31]: 3370 ng·h/mL
- Cmax [4, 31]: 1240 ng/mL
- AUC(0-t) [4, 32]: 1840 ng·h/mL
- AUC(0–12) [4, 32]: 2130 ng·h/mL
- Cmax [4, 32]: 676 ng/mL
- AUC(0-t) [4, 33]: 2520 ng·h/mL
- AUC(0–12) [4, 33]: 2940 ng·h/mL
- Cmax [4, 33]: 887 ng/mL
- inhibition of CYP2D6 [5]: no inhibition
- Protein binding [6]: 98.9%
- Protein binding [7]: 93.7%
- Tumor growth inhibition as a % of control ([8]; AZD6244 25 mg/kg BD, Iressa 75 mg/kg QD): 40.2 % of control
- Tumor growth inhibition as a % of control ([8]; rapamycin experiment, usual monotherapy schedules, doses not given): 39 % of control
- cytotoxicity in the presence of UV light [9]: enhanced
- Protein binding [10]: 98.4%
- inhibition of CYP2C19 [11]: no inhibition
- inhibition of CYP3A4 [12]: no inhibition
- Tumor growth inhibition as a % of control ([13]; AZD6244 25 mg/kg BD, irinotecan 25 mg/kg once weekly, docetaxel 15 mg/kg once weekly): 74 % of control
- Tumor growth inhibition as a % of control ([13]; temozolamide experiment, usual monotherapy schedules, doses not given): 58 % of control
- induction of cytochrome P450 (CYP)3A, 1A and 2C [14]: weak inducer
- CYP isoforms metabolizing AZD6244 [15]: metabolized by CYP1A2; also recorded: also metabolized by CYP 2C19 and CYP 3A4
- Protein binding [16]: 94.6%
- pIC50 [17]: 4.35
- interaction with p-glycoprotein (PgP) [18]: substrate but not an inhibitor
- activity against a panel of other kinases [19]: inactive, or only minimally active
- inhibition of CYP2C8 [20]: no inhibition
- inhibition of CYP1A2 [21]: no inhibition
- mouse micronucleus result [22]: increase in micronucleated immature erythrocytes (MIE)
- reproductive toxicology [23]: adverse effects on embryofetal development and survival
- accumulation on multiple dosing [24]: no/minimal accumulation
- time at which Cmax attained (median) ([25]; post-dose): approximately 1 hour
- half-life (t½), median ([25]; terminal elimination phase): approximately 11 hours
- QTc prolongation [26]: no signal for QTc prolongation
- interaction with breast cancer resistance protein (BCRP) [27]: substrate but not an inhibitor
- Cmax ([28]; geometric mean (% CV), dosed alone, selumetinib 50 mg cohort (N = 14), erlotinib 100 mg QD): 926.5 (69.10) ng/mL
- Cmax ([28]; geometric mean (% CV), dosed in combination, selumetinib 50 mg BID (N = 12) + erlotinib 100 mg QD): 1334 (51.16) ng/mL
- Cmax ([28]; geometric mean, QD cohorts, in combination, selumetinib 50 mg (N = 6) + erlotinib 100 mg QD): 942 ng/mL
- tmax ([28]; human, plasma, oral): 1.25 h
- AUC(0-t) ([28]; human, plasma, oral, 100 mg, AUC(0–8), geometric mean, QD cohorts, dosed alone, selumetinib 100 mg cohort (N = 6), erlotinib 100 mg QD): 4400 ng·h/mL
- AUC(0-t) ([28]; human, plasma, oral, 100 mg, AUC(0–12), geometric mean, QD cohorts, dosed alone, selumetinib 100 mg cohort (N = 6), erlotinib 100 mg QD): 5000 ng·h/mL
- Cmax ([28]; human, plasma, oral, 100 mg, Cmax, geometric mean, QD cohorts, dosed alone, selumetinib 100 mg cohort (N = 6), erlotinib 100 mg QD): 1800 ng/mL
- AUC(0-t) ([28]; human, plasma, oral, AUC(0–8), geometric mean (% CV), dosed alone, selumetinib 50 mg cohort (N = 14), erlotinib 100 mg QD): 2280 ng·h/mL
- AUC(0-t) ([28]; human, plasma, oral, AUC(0–8), geometric mean (% CV), dosed alone, selumetinib 75 mg cohort (N = 6), erlotinib 100 mg QD): 2860 ng·h/mL
- AUC(0-t) ([28]; human, plasma, oral, AUC(0–8), geometric mean (% CV), dosed in combination, selumetinib 50 mg BID (N = 12) + erlotinib 100 mg QD): 3640 ng·h/mL
- AUC(0-t) ([28]; human, plasma, oral, AUC(0–8), geometric mean (% CV), dosed in combination, selumetinib 75 mg BID (N = 6) + erlotinib 100 mg QD): 4350 ng·h/mL
- AUC(0-t) ([28]; human, plasma, oral, AUC(0–8), geometric mean, QD cohorts, dosed alone, selumetinib 50 mg cohort (N = 7), erlotinib 100 mg QD): 1900 ng·h/mL
- AUC(0-t) ([28]; human, plasma, oral, AUC(0–8), geometric mean, QD cohorts, dosed alone, selumetinib 150 mg cohort (N = 13), erlotinib 100 mg QD): 6780 ng·h/mL
- AUC(0-t) ([28]; human, plasma, oral, AUC(0–8), geometric mean, QD cohorts, in combination, selumetinib 50 mg (N = 6) + erlotinib 100 mg QD): 2600 ng·h/mL
- AUC(0-t) ([28]; human, plasma, oral, AUC(0–8), geometric mean, QD cohorts, in combination, selumetinib 100 mg (N = 6) + erlotinib 100 mg QD): 7070 ng·h/mL
- AUC(0-t) ([28]; human, plasma, oral, AUC(0–8), geometric mean, QD cohorts, in combination, selumetinib 150 mg (N = 12) + erlotinib 100 mg QD): 9190 ng·h/mL
- AUC(0-t) ([28]; human, plasma, oral, AUC(0–12), geometric mean (% CV), dosed alone, selumetinib 50 mg cohort (N = 14), erlotinib 100 mg QD): 2700 ng·h/mL
- AUC(0-t) ([28]; human, plasma, oral, AUC(0–12), geometric mean (% CV), dosed alone, selumetinib 75 mg cohort (N = 6), erlotinib 100 mg QD): 3200 ng·h/mL
- AUC(0-t) ([28]; human, plasma, oral, AUC(0–12), geometric mean (% CV), dosed in combination, selumetinib 50 mg BID (N = 12) + erlotinib 100 mg QD): 4010 ng·h/mL
- AUC(0-t) ([28]; human, plasma, oral, AUC(0–12), geometric mean (% CV), dosed in combination, selumetinib 75 mg BID (N = 6) + erlotinib 100 mg QD): 4830 ng·h/mL
- AUC(0-t) ([28]; human, plasma, oral, AUC(0–12), geometric mean, QD cohorts, dosed alone, selumetinib 50 mg cohort (N = 7), erlotinib 100 mg QD): 2130 ng·h/mL
- AUC(0-t) ([28]; human, plasma, oral, AUC(0–12), geometric mean, QD cohorts, dosed alone, selumetinib 150 mg cohort (N = 13), erlotinib 100 mg QD): 7740 ng·h/mL
- AUC(0-t) ([28]; human, plasma, oral, AUC(0–12), geometric mean, QD cohorts, in combination, selumetinib 100 mg (N = 6) + erlotinib 100 mg QD): 7760 ng·h/mL
- AUC(0-t) ([28]; human, plasma, oral, AUC(0–12), geometric mean, QD cohorts, in combination, selumetinib 150 mg (N = 12) + erlotinib 100 mg QD): 10500 ng·h/mL
- Cmax ([28]; human, plasma, oral, Cmax, geometric mean (% CV), dosed alone, selumetinib 75 mg cohort (N = 6), erlotinib 100 mg QD): 1050 ng/mL
- Cmax ([28]; human, plasma, oral, Cmax, geometric mean (% CV), dosed in combination, selumetinib 75 mg BID (N = 6) + erlotinib 100 mg QD): 1660 ng/mL
- Cmax ([28]; human, plasma, oral, Cmax, geometric mean, QD cohorts, dosed alone, selumetinib 50 mg cohort (N = 7), erlotinib 100 mg QD): 683 ng/mL
- Cmax ([28]; human, plasma, oral, Cmax, geometric mean, QD cohorts, dosed alone, selumetinib 150 mg cohort (N = 13), erlotinib 100 mg QD): 2450 ng/mL
- Cmax ([28]; human, plasma, oral, Cmax, geometric mean, QD cohorts, in combination, selumetinib 100 mg (N = 6) + erlotinib 100 mg QD): 2600 ng/mL
- Cmax ([28]; human, plasma, oral, Cmax, geometric mean, QD cohorts, in combination, selumetinib 150 mg (N = 12) + erlotinib 100 mg QD): 2810 ng/mL
- maximum tolerated dose (MTD), monotherapy ([29]; first-in-human trial of selumetinib monotherapy): 75 mg BID
- recommended phase II monotherapy dose ([29]; in vivo): 75 mg BID
